Data from ChEMBL document CHEMBL5303763, “Data for DCP probe BI-3802” (2023).

How the values were obtained:
[1] = target: Cannabinoid receptor 1 (Homo sapiens) (UniProt P21554); assay: CB1/CENTR/H Eurofins SafetyScreen44 (BI); conditions: Compound concentration 10.0 uM
[2] = target: Histamine H3 receptor (Homo sapiens) (UniProt Q9Y5N1); conditions: Compound concentration 10.0 uM
[3] = target: L-type Ca2+ channel (dihydropyridine site), Voltage-dependent L-type calcium channel subunit alpha-1C (Rattus norvegicus, UniProt P22002); assay: CA+/DHPSI/R Eurofins SafetyScreen44 (BI); conditions: rat brain, probe [3H](+)PN200-110, compound concentration 10 uM, read-out: % Ctrl
Chain of L-type Ca2+ channel (dihydropyridine site), Voltage-dependent L-type calcium channel subunit alpha-1C (P22002 whole entry): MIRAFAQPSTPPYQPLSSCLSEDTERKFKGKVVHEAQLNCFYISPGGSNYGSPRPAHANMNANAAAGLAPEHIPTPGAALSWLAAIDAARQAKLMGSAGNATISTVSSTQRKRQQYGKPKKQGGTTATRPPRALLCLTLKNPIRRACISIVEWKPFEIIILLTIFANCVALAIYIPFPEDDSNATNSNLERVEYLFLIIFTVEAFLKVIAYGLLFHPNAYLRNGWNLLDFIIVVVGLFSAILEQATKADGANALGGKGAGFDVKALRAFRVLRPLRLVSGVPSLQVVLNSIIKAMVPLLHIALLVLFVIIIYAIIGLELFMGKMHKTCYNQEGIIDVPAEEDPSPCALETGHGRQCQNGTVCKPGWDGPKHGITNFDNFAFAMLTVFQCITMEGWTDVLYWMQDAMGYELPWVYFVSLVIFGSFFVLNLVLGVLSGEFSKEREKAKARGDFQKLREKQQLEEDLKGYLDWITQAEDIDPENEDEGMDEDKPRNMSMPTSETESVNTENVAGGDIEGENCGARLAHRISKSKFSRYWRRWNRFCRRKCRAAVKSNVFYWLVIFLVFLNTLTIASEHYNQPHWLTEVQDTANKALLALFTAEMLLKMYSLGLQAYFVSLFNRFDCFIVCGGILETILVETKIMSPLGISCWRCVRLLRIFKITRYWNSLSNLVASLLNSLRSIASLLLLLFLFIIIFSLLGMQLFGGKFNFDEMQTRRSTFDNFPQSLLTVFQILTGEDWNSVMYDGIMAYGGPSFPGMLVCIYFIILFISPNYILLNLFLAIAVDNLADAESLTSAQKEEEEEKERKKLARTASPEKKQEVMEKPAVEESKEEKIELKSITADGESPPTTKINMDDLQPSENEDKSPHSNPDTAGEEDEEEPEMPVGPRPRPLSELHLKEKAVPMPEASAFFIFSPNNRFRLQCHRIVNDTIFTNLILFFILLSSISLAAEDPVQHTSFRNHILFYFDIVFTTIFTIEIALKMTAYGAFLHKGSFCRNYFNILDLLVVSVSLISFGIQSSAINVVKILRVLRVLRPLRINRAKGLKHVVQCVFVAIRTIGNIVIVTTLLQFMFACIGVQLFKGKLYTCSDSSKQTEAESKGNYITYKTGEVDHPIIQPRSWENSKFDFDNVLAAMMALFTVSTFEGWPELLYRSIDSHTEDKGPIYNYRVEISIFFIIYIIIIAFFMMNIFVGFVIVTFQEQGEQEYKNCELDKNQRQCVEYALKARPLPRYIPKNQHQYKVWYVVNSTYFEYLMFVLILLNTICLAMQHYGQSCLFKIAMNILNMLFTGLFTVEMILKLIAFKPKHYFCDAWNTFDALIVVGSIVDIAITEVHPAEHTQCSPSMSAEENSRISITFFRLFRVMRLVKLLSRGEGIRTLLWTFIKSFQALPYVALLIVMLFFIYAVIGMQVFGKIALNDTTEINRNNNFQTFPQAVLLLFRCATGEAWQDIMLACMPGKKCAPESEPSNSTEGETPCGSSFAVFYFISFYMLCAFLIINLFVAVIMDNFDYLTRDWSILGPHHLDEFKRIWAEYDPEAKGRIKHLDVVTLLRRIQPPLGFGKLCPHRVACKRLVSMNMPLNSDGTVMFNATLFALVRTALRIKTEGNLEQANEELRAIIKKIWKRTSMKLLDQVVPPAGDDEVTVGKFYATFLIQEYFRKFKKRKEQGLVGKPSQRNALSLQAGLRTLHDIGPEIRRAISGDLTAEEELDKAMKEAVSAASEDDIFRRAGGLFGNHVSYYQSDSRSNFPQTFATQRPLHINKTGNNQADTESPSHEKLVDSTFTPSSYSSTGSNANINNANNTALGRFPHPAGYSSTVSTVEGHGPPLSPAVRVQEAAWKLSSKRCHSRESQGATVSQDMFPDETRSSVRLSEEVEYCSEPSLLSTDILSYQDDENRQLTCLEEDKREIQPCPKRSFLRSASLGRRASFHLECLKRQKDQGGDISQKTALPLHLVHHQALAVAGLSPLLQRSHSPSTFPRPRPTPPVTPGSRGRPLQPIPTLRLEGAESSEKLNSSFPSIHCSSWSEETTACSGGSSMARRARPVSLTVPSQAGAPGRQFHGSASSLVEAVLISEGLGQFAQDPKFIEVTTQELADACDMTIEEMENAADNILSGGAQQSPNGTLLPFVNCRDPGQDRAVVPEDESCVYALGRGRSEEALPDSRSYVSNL

[4] = target: Prostaglandin G/H synthase 2 (Homo sapiens) (UniProt P35354); assay: COX-2 Eurofins SafetyScreen44 (BI); conditions: Compound concentration 10.0 uM
Chain of Prostaglandin G/H synthase 2 (Homo sapiens) (P35354 whole entry): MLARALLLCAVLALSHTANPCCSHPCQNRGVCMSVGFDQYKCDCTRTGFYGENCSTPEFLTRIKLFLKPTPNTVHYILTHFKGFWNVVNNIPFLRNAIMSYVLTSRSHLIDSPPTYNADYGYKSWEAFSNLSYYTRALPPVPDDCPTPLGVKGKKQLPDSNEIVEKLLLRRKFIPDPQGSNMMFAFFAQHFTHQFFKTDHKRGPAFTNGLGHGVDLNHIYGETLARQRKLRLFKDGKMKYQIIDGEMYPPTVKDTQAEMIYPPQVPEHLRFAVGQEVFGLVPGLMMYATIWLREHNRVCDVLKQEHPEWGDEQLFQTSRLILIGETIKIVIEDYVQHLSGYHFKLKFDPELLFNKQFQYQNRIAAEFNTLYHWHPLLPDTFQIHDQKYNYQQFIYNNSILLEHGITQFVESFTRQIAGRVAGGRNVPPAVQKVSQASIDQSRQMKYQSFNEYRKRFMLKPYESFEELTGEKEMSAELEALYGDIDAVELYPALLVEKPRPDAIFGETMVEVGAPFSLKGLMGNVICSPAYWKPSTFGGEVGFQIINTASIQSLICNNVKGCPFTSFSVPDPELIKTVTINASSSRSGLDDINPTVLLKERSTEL

[5] = target: Proto-oncogene tyrosine-protein kinase Src (Homo sapiens) (UniProt P12931); assay: SRC Invitrogen Lab (UK) kinase screen (BI); conditions: Compound concentration 1.0 uM
[6] = target: Delta-type opioid receptor (Homo sapiens) (UniProt P41143); assay: DELTA2/H Eurofins SafetyScreen44 (BI); conditions: Compound concentration 10.0 uM
[7] = target: T1, Muscarinic acetylcholine receptor M2 (Homo sapiens) (UniProt P08172); assay: M2/H Eurofins SafetyScreen44 (BI); conditions: filed as antagonist, Compound concentration 10.0 uM
T1 sequence (whole entry): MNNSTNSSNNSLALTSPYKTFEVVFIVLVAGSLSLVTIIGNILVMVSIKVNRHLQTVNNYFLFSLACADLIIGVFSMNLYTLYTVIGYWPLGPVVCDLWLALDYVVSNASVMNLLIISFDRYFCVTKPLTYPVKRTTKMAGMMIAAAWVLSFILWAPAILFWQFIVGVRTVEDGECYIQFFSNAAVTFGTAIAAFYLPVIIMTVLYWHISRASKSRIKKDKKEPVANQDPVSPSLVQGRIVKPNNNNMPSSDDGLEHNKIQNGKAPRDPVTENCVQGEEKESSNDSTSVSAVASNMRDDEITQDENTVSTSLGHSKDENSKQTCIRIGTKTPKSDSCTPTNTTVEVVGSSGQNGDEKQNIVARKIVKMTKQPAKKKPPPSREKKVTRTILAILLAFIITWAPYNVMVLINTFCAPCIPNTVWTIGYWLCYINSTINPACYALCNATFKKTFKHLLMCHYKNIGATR

[8] = target: Epidermal growth factor receptor (Homo sapiens) (UniProt P00533); assay: EGFR Invitrogen Lab (UK) kinase screen (BI); conditions: Compound concentration 1.0 uM
[9] = target: RAF proto-oncogene serine/threonine-protein kinase (Homo sapiens) (UniProt P04049); assay: RAF1 Invitrogen Lab (UK) kinase screen (BI); conditions: Compound concentration 1.0 uM
[10] = target: Sodium-dependent noradrenaline transporter (Homo sapiens) (UniProt P23975); conditions: Compound concentration 10.0 uM
Chain of Sodium-dependent noradrenaline transporter (Homo sapiens) (P23975 whole entry): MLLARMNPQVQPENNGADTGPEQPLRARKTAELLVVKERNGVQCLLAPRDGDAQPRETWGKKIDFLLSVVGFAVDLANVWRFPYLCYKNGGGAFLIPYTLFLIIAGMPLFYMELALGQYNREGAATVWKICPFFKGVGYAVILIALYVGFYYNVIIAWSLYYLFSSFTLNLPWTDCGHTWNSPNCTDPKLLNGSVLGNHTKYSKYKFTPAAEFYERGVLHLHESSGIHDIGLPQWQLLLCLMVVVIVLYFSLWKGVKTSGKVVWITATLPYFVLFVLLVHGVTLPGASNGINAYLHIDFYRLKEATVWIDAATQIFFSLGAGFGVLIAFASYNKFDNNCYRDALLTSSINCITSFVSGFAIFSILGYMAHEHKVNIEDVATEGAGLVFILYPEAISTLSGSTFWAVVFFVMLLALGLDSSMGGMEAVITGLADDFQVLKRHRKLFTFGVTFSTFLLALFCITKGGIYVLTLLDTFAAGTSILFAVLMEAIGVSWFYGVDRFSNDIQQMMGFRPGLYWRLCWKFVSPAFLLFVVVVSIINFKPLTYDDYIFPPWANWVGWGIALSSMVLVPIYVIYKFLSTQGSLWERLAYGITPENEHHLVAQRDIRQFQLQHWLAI

[11] = target: Mitogen-activated protein kinase kinase kinase 8 (Homo sapiens) (UniProt P41279); assay: MAP3K8 Invitrogen Lab (UK) kinase screen (BI); conditions: Compound concentration 1.0 uM
[12] = target: Muscarinic acetylcholine receptor M1 (Homo sapiens) (UniProt P11229); assay: M1/H Eurofins SafetyScreen44 (BI); conditions: Compound concentration 10.0 uM
[13] = target: Histamine H2 receptor (Homo sapiens) (UniProt P25021); assay: H2/APT/HS Eurofins SafetyScreen44 (BI); conditions: filed as antagonist, Compound concentration 10.0 uM
[14] = target: Ribosomal protein S6 kinase beta-1 (Homo sapiens) (UniProt P23443); assay: RPS6KB1 Invitrogen Lab (UK) kinase screen (BI); conditions: Compound concentration 1.0 uM
[15] = target: Serine/threonine-protein kinase PAK 4 (Homo sapiens) (UniProt O96013); assay: PAK4 Invitrogen Lab (UK) kinase screen (BI); conditions: Compound concentration 1.0 uM
[16] = target: Ephrin type-A receptor 2 (Homo sapiens) (UniProt P29317); assay: EPHA2 Invitrogen Lab (UK) kinase screen (BI); conditions: Compound concentration 1.0 uM
[17] = target: Serine/threonine-protein kinase 3 (Homo sapiens) (UniProt Q13188); assay: STK3 Invitrogen Lab (UK) kinase screen (BI); conditions: Compound concentration 1.0 uM
[18] = target: Vascular endothelial growth factor receptor 2 (Homo sapiens) (UniProt P35968); assay: KDR Invitrogen Lab (UK) kinase screen (BI); conditions: Compound concentration 1.0 uM
[19] = target: Tyrosine-protein kinase ITK/TSK (Homo sapiens) (UniProt Q08881); assay: ITK Invitrogen Lab (UK) kinase screen (BI); conditions: Compound concentration 1.0 uM
[20] = target: Tyrosine-protein kinase Lyn (Homo sapiens) (UniProt P07948); assay: LYN A Invitrogen Lab (UK) kinase screen (BI); conditions: Compound concentration 1.0 uM
[21] = target: Vasopressin V1a receptor (Homo sapiens) (UniProt P37288); assay: V1A/HUM Eurofins SafetyScreen44 (BI); conditions: Compound concentration 10.0 uM
[22] = target: Mitogen-activated protein kinase 1 (Homo sapiens) (UniProt P28482); assay: MAPK1 Invitrogen Lab (UK) kinase screen (BI); conditions: Compound concentration 1.0 uM
[23] = target: Neuronal acetylcholine receptor; alpha4/beta2 (Homo sapiens) (UniProt P17787+P43681); assay: N_NEURO_A4B2 Eurofins SafetyScreen44 (BI); assay type: protein-complex assay; conditions: filed as agonist, Compound concentration 10.0 uM
[24] = target: Aurora kinase B (Homo sapiens) (UniProt Q96GD4); assay: AURKB Invitrogen Lab (UK) kinase screen (BI); conditions: Compound concentration 1.0 uM
[25] = target: T2, 5-hydroxytryptamine receptor 3A (Homo sapiens) (UniProt P46098); assay: 5HT3/H Eurofins SafetyScreen44 (BI); conditions: Compound concentration 10.0 uM
T2 sequence (whole entry): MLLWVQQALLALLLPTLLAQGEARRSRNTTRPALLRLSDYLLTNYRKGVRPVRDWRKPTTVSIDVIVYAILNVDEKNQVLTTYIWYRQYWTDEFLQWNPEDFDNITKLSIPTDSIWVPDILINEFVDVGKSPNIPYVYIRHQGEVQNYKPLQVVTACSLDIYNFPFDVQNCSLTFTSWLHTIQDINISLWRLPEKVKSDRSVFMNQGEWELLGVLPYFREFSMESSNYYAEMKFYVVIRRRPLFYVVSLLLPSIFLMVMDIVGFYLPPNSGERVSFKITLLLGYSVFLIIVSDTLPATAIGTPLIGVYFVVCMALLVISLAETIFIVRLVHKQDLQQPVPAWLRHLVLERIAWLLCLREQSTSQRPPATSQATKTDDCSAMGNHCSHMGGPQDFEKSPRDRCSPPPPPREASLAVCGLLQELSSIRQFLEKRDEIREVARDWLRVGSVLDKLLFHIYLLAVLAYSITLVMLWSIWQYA

[26] = target: 5-hydroxytryptamine receptor 2B (Homo sapiens) (UniProt P41595); assay: 5HT2B/H AG Eurofins SafetyScreen44 (BI); conditions: filed as agonist, Compound concentration 10.0 uM
Chain of 5-hydroxytryptamine receptor 2B (Homo sapiens) (P41595 whole entry): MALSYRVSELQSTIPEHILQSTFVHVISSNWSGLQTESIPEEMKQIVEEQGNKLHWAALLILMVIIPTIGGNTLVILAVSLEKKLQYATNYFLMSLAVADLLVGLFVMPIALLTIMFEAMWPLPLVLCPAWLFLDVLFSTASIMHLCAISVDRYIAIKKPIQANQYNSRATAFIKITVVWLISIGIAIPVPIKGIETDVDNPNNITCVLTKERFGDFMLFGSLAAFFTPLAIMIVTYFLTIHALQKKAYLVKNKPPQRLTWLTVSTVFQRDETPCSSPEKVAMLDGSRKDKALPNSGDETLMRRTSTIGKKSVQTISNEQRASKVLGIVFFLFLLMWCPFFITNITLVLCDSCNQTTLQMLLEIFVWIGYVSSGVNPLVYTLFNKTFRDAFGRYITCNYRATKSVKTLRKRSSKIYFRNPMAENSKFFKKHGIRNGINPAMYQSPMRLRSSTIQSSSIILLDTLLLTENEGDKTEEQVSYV

[27] = target: D(1A) dopamine receptor (Homo sapiens) (UniProt P21728); assay: D1/H Eurofins SafetyScreen44 (BI); conditions: filed as antagonist, Compound concentration 10.0 uM
Chain of D(1A) dopamine receptor (Homo sapiens) (P21728 whole entry): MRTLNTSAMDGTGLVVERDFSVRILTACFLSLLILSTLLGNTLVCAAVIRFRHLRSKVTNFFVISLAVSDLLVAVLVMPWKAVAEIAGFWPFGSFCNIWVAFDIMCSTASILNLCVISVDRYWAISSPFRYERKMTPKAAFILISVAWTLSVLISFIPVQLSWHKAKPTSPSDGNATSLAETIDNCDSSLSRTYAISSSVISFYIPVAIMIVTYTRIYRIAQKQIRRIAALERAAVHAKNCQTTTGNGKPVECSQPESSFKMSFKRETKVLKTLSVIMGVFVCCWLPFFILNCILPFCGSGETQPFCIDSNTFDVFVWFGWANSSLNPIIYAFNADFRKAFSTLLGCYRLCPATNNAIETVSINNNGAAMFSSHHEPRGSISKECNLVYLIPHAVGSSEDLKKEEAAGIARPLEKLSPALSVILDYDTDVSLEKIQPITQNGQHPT

[28] = target: Beta-2 adrenergic receptor (Homo sapiens) (UniProt P07550); conditions: Compound concentration 10.0 uM
[29] = target: Sigma non-opioid intracellular receptor 1 (Homo sapiens) (UniProt Q99720); conditions: Compound concentration 10.0 uM
Chain of Sigma non-opioid intracellular receptor 1 (Homo sapiens) (Q99720 whole entry): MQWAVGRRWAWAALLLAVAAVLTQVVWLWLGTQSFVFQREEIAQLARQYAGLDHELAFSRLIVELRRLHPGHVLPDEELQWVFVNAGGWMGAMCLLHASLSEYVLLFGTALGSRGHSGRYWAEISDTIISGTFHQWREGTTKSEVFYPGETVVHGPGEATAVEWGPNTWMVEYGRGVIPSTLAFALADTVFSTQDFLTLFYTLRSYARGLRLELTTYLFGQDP

[30] = target: Mu-type opioid receptor (Homo sapiens) (UniProt P35372); assay: MU/H Eurofins SafetyScreen44 (BI); conditions: Compound concentration 10.0 uM
[31] = target: Zinc finger and BTB domain-containing protein 32 (Homo sapiens, UniProt Q9Y2Y4); assay: SPR (ZBTB32), Ontario institute for cancer research

Chain of Histamine H3 receptor (Homo sapiens) (Q9Y5N1 whole entry): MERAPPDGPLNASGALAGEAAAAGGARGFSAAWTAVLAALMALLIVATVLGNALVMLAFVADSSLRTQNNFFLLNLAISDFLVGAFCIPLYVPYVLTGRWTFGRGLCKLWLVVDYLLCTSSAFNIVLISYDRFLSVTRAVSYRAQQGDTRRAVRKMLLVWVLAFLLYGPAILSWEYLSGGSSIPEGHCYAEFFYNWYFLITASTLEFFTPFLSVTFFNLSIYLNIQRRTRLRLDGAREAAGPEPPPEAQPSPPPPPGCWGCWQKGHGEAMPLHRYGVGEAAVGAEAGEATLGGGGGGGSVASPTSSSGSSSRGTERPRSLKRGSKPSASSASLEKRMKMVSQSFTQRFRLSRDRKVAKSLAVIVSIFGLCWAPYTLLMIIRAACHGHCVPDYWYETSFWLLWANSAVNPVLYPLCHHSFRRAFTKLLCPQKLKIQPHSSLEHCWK

SMILES	activity at 10 µM [3]	residual activity [4] [%]	residual activity [6] [%]	residual activity [7] [%]	residual activity [12] [%]	residual activity [13] [%]	residual activity [21] [%]	residual activity [23] [%]	residual activity [25] [%]	residual activity [26] [%]	residual activity [27] [%]	residual activity [30] [%]	further results
CNC(=O)COc1cc2cc(Nc3nc(N4C[C@H](C)C[C@H](C)C4)ncc3Cl)ccc2n(C)c1=O	99% (not active)	88	100	102	93	110	85	107	101	12	106	81	residual activity [1]: 84%; inhibition [2]: 12.7%; residual activity [5]: 105%; residual activity [8]: 88%; residual activity [9]: 94%; inhibition [10]: 9.75%; residual activity [11]: 118%; residual activity [14]: 97%; residual activity [15]: 94%; residual activity [16]: 97%; residual activity [17]: 101%; residual activity [18]: 111%; residual activity [19]: 100%; residual activity [20]: 104%; residual activity [22]: 106%; residual activity [24]: 97%; inhibition [28]: -8.13%; inhibition [29]: 19.9%
C[C@@H]1C[C@H](C)CN(c2ncc(Cl)c(Nc3ccc4c(c3)cc(OC(C)(C)C(=O)O)c(=O)n4C)n2)C1	104% (not active)	75	97	111	128	121	97	106	95	159	92	44	Kd [31]: No binding
